Legend:
Assay in all cases: viability relative to DMSO control (fraction); higher = less drug effect (more viable cells)
Conditions in all cases: 48 h
[1] = compound: CCNC(=O)C[C@@H]1N=C(c2ccc(Cl)cc2)c2cc(OC)ccc2-n2c(C)nnc21 [I-BET-762]
In short: (§1)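 Compounds were pre-plated at five concentrations, one well each, in 384-well plates, and primary mononuclear tumour cells were plated on them at 4 × 10^4 cells per well. The cells, fresh or cryopreserved, had been Ficoll-isolated from blood or bone marrow or taken from processed lymph node. After 48 h at 37 °C and 5% CO2 in RPMI-1640 with penicillin/streptomycin, L-glutamine and human serum, viability was read as CellTiter-Glo luminescence relative to the median of 16 inner DMSO wells.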

[2] = compound: CO[C@H]1C[C@@H]2CC[C@@H](C)[C@@](O)(O2)C(=O)C(=O)N2CCCC[C@H]2C(=O)O[C@H]([C@H](C)C[C@@H]2CC[C@@H](OCCO)[C@H](OC)C2)CC(=O)[C@H](C)/C=C(\C)[C@@H](O)[C@@H](OC)C(=O)[C@H](C)C[C@H](C)/C=C/C=C/C=C/1C [Everolimus]
In short: as §1

[3] = compound: CC[C@H](CO)Nc1nc(NCc2ccccc2)c2ncn(C(C)C)c2n1 [Roscovitine]
In short: as §1

[4] = compound: Cn1c(CCCC(=O)O)nc2cc(N(CCCl)CCCl)ccc21 [Bendamustine]
In short: as §1

[5] = compound: O=C(NO)c1cccc(C(=O)NCCc2ccccc2)c1
In short: as §1

[6] = compound: CC1(C)CCC(CN2CCN(c3ccc(C(=O)NS(=O)(=O)c4ccc(NCC5CCOCC5)c([N+](=O)[O-])c4)c(Oc4cnc5[nH]ccc5c4)c3)CC2)=C(c2ccc(Cl)cc2)C1 [Venetoclax]
In short: as §1

[7] = compound: CCS(=O)(=O)N1CCC([C@@H](C)n2c(C)c(C(=O)NCc3c(OC)cc(C)[nH]c3=O)c3ccccc32)CC1 [CPI-169]
In short: as §1

[8] = compound: O=C(Nc1ccc2[nH]nc(-c3ccncc3)c2c1)[C@@H]1CCN(CC(=O)N2CCN(c3ccc(-c4ncccn4)cc3)CC2)C1
In short: as §1

[9] = compound: C[C@H]1C[C@@H](n2c(Nc3ccc(OC(F)(F)F)cc3)nc3cc(CCC(=O)O)ccc32)CC(C)(C)C1
In short: as §1

[10] = compound: c1cn2cc(-c3ccc4cn[nH]c4c3)nc(Nc3ccc(N4CCOCC4)cc3)c2n1 [Entospletinib]
In short: as §1

[11] = compound: CC[C@]1(O)C[C@@H]2CN(CCc3c([nH]c4ccccc34)[C@@](C(=O)OC)(c3cc4c(cc3OC)N(C)[C@H]3[C@@](O)(C(N)=O)[C@H](O)[C@]5(CC)C=CCN6CC[C@]43[C@@H]65)C2)C1 [Vindesine]
In short: as §1

[12] = compound: O=C1CCC(N2C(=O)c3ccccc3C2=O)C(=O)N1 [Thalidomide]
In short: as §1

[13] = compound: COc1cc(C(=O)O)ccc1NC(=O)[C@@H]1N[C@@H](CC(C)(C)C)[C@](C#N)(c2ccc(Cl)cc2F)[C@H]1c1cccc(Cl)c1F [Idasanutlin (RS7388)]
In short: as §1

## primary AML patient cells (S011)
[1]; 0.008 µM
  viability: 0.958
[1]; 0.04 µM
  viability: 1.16
[1]; 0.2 µM
  viability: 0.864
[1]; 1 µM
  viability: 0.68
[1]; 5 µM
  viability: 0.639
[2]; 0.0032 µM
  viability: 0.935
[2]; 0.016 µM
  viability: 0.964
[2]; 0.08 µM
  viability: 0.893
[2]; 0.4 µM
  viability: 0.932
[2]; 2 µM
  viability: 0.882
[3]; 0.032 µM
  viability: 0.987
[3]; 0.16 µM
  viability: 0.928
[3]; 0.8 µM
  viability: 1.52
[3]; 4 µM
  viability: 1.12
[3]; 20 µM
  viability: 0.708
[4]; 0.032 µM
  viability: 1.04
[4]; 0.16 µM
  viability: 0.98
[4]; 0.8 µM
  viability: 0.948
[4]; 4 µM
  viability: 0.828
[4]; 20 µM
  viability: 0.384
[5]; 0.024 µM
  viability: 0.93
[5]; 0.12 µM
  viability: 0.971
[5]; 0.6 µM
  viability: 1.04
[5]; 3 µM
  viability: 0.939
[5]; 15 µM
  viability: 0.936
[6]; 0.00064 µM
  viability: 0.924
[6]; 0.0032 µM
  viability: 0.426
[6]; 0.016 µM
  viability: 0.112
[6]; 0.08 µM
  viability: 0.0714
[6]; 0.4 µM
  viability: 0.0597
[7]; 0.024 µM
  viability: 0.964
[7]; 0.12 µM
  viability: 0.888
[7]; 0.6 µM
  viability: 0.915
[7]; 3 µM
  viability: 0.906
[7]; 15 µM
  viability: 0.841
[8]; 0.008 µM
  viability: 0.978
[8]; 0.04 µM
  viability: 0.916
[8]; 0.2 µM
  viability: 0.904
[8]; 1 µM
  viability: 0.872
[8]; 5 µM
  viability: 0.751
[9]; 0.024 µM
  viability: 0.581
[9]; 0.12 µM
  viability: 0.785
[9]; 0.6 µM
  viability: 0.741
[9]; 3 µM
  viability: 0.884
[9]; 15 µM
  viability: 0.992
[10]; 0.024 µM
  viability: 1
[10]; 0.12 µM
  viability: 1.4
[10]; 0.6 µM
  viability: 1.03
[10]; 3 µM
  viability: 0.992
[10]; 15 µM
  viability: 0.861
[11]; 0.016 µM
  viability: 0.285
[11]; 0.08 µM
  viability: 0.323
[11]; 0.4 µM
  viability: 0.149
[11]; 2 µM
  viability: 0.171
[11]; 10 µM
  viability: 0.129
[12]; 0.032 µM
  viability: 0.969
[12]; 0.16 µM
  viability: 1.01
[12]; 0.8 µM
  viability: 0.948
[12]; 4 µM
  viability: 0.895
[12]; 20 µM
  viability: 0.976
[13]; 0.032 µM
  viability: 0.59
[13]; 0.16 µM
  viability: 0.528
[13]; 0.8 µM
  viability: 0.259
[13]; 4 µM
  viability: 0.115
[13]; 20 µM
  viability: 0.0835

## primary ALL patient cells (S048)
[1]; 0.008 µM
  viability: 0.97
[1]; 0.04 µM
  viability: 1.11
[1]; 0.2 µM
  viability: 1.1
[1]; 1 µM
  viability: 0.639
[1]; 5 µM
  viability: 0.327
[2]; 0.0032 µM
  viability: 0.862
[2]; 0.016 µM
  viability: 0.757
[2]; 0.08 µM
  viability: 0.769
[2]; 0.4 µM
  viability: 0.716
[2]; 2 µM
  viability: 0.777
[3]; 0.032 µM
  viability: 0.65
[3]; 0.16 µM
  viability: 0.614
[3]; 0.8 µM
  viability: 0.607
[3]; 4 µM
  viability: 0.579
[3]; 20 µM
  viability: 0.599
[4]; 0.032 µM
  viability: 0.981
[4]; 0.16 µM
  viability: 1.03
[4]; 0.8 µM
  viability: 0.982
[4]; 4 µM
  viability: 0.747
[4]; 20 µM
  viability: 0.15
[5]; 0.024 µM
  viability: 0.897
[5]; 0.12 µM
  viability: 0.878
[5]; 0.6 µM
  viability: 0.886
[5]; 3 µM
  viability: 0.828
[5]; 15 µM
  viability: 0.65
[6]; 0.00064 µM
  viability: 0.803
[6]; 0.0032 µM
  viability: 0.317
[6]; 0.016 µM
  viability: 0.0881
[6]; 0.08 µM
  viability: 0.0546
[6]; 0.4 µM
  viability: 0.0458
[7]; 0.024 µM
  viability: 0.675
[7]; 0.12 µM
  viability: 0.606
[7]; 0.6 µM
  viability: 0.631
[7]; 3 µM
  viability: 0.621
[7]; 15 µM
  viability: 0.604
[8]; 0.008 µM
  viability: 0.405
[8]; 0.04 µM
  viability: 0.334
[8]; 0.2 µM
  viability: 0.255
[8]; 1 µM
  viability: 0.191
[8]; 5 µM
  viability: 0.197
[9]; 0.024 µM
  viability: 0.771
[9]; 0.12 µM
  viability: 0.831
[9]; 0.6 µM
  viability: 0.596
[9]; 3 µM
  viability: 0.641
[9]; 15 µM
  viability: 0.642
[10]; 0.024 µM
  viability: 0.996
[10]; 0.12 µM
  viability: 1.03
[10]; 0.6 µM
  viability: 1.02
[10]; 3 µM
  viability: 0.984
[10]; 15 µM
  viability: 0.944
[11]; 0.016 µM
  viability: 0.395
[11]; 0.08 µM
  viability: 0.179
[11]; 0.4 µM
  viability: 0.111
[11]; 2 µM
  viability: 0.0967
[11]; 10 µM
  viability: 0.0648
[12]; 0.032 µM
  viability: 0.899
[12]; 0.16 µM
  viability: 0.849
[12]; 0.8 µM
  viability: 0.866
[12]; 4 µM
  viability: 0.829
[12]; 20 µM
  viability: 0.846
[13]; 0.032 µM
  viability: 0.695
[13]; 0.16 µM
  viability: 0.556
[13]; 0.8 µM
  viability: 0.235
[13]; 4 µM
  viability: 0.0549
[13]; 20 µM
  viability: 0.0421

## primary MCL patient cells (S053)
[1]; 0.008 µM
  viability: 0.928
[1]; 0.04 µM
  viability: 0.963
[1]; 0.2 µM
  viability: 0.837
[1]; 1 µM
  viability: 0.659
[1]; 5 µM
  viability: 0.54
[2]; 0.0032 µM
  viability: 0.958
[2]; 0.016 µM
  viability: 0.928
[2]; 0.08 µM
  viability: 0.926
[2]; 0.4 µM
  viability: 0.959
[2]; 2 µM
  viability: 0.881
[3]; 0.032 µM
  viability: 0.884
[3]; 0.16 µM
  viability: 0.802
[3]; 0.8 µM
  viability: 0.928
[3]; 4 µM
  viability: 0.836
[3]; 20 µM
  viability: 0.338
[4]; 0.032 µM
  viability: 0.96
[4]; 0.16 µM
  viability: 1.08
[4]; 0.8 µM
  viability: 0.878
[4]; 4 µM
  viability: 0.715
[4]; 20 µM
  viability: 0.371
[5]; 0.024 µM
  viability: 0.995
[5]; 0.12 µM
  viability: 0.905
[5]; 0.6 µM
  viability: 0.939
[5]; 3 µM
  viability: 0.939
[5]; 15 µM
  viability: 0.817
[6]; 0.00064 µM
  viability: 0.761
[6]; 0.0032 µM
  viability: 0.449
[6]; 0.016 µM
  viability: 0.332
[6]; 0.08 µM
  viability: 0.288
[6]; 0.4 µM
  viability: 0.253
[7]; 0.024 µM
  viability: 0.814
[7]; 0.12 µM
  viability: 0.795
[7]; 0.6 µM
  viability: 0.877
[7]; 3 µM
  viability: 0.815
[7]; 15 µM
  viability: 0.727
[8]; 0.008 µM
  viability: 0.878
[8]; 0.04 µM
  viability: 0.898
[8]; 0.2 µM
  viability: 0.808
[8]; 1 µM
  viability: 0.728
[8]; 5 µM
  viability: 0.653
[9]; 0.024 µM
  viability: 0.773
[9]; 0.12 µM
  viability: 0.895
[9]; 0.6 µM
  viability: 0.816
[9]; 3 µM
  viability: 0.771
[9]; 15 µM
  viability: 0.903
[10]; 0.024 µM
  viability: 1.04
[10]; 0.12 µM
  viability: 1.01
[10]; 0.6 µM
  viability: 0.825
[10]; 3 µM
  viability: 1.03
[10]; 15 µM
  viability: 0.912
[11]; 0.016 µM
  viability: 0.462
[11]; 0.08 µM
  viability: 0.346
[11]; 0.4 µM
  viability: 0.362
[11]; 2 µM
  viability: 0.321
[11]; 10 µM
  viability: 0.339
[12]; 0.032 µM
  viability: 0.959
[12]; 0.16 µM
  viability: 1.01
[12]; 0.8 µM
  viability: 1.12
[12]; 4 µM
  viability: 1.18
[12]; 20 µM
  viability: 1.14
[13]; 0.032 µM
  viability: 0.524
[13]; 0.16 µM
  viability: 0.511
[13]; 0.8 µM
  viability: 0.348
[13]; 4 µM
  viability: 0.226
[13]; 20 µM
  viability: 0.279

— the supplement of paper PMC10733146
